# Test results taken from US6379665B1, “Phospholipase D polypeptide and DNA sequences” (Onyx Pharmaceuticals, Inc., priority 1996, dated 2002).
# How the values were obtained:
# PLD1 = assay: basic PLD assay with purified PLD1 and activators (headgroup-labeled phosphatidylcholine); assay type: biochemical, human; parameters: increase in maximal effect of PKC- on PLD1: dose or concentration left out as unconfirmed; details: for lipid content giving maximal activation of PLD1: lipid fraction of vesicles; for stimulation of PLD1 activity by lipid: vesicles with 7% acidic lipid in PE/PS background
# Method: The basic PLD assay was performed as described in Hammond, J. Biol. Chem. 270: 29640-43 (1995) using headgroup-labeled phosphatidyl-choline. Lipids were prepared and labeled. Labeled choline was obtained from American Radiolabelled Chemicals Inc. (Catalog No. ART 284) and extracted with chloroform and methanol 100 ml chloroform/100 ml methanol/90 ml water (100,000 dpm/assay; 1.6 ml). The mixture was vortexed, spun and the bottom layer collected and added to the lipid mixture to give a final concentration of 67 mM PE (Avanti Polar Lipids, Alabaster, Ala., catalog no 850757), 7.6 mM PIP2 (suspended in 20 mM Hepes, pH 7) and 5.4 mM PC (Avanti catalog no 850457). The labeled choline/lipid mixture was sonicated and vortexed until the lipids are dissolved. Sf9 cells were plated onto large flasks (30×10^6 cells/flask) and left to adhere. Once adhered, medium was removed and the cells were infected with virus (at 1:5 or 1:10) for 1 hour with gentle rocking. After that time, virus was removed and fresh medium added, and the cells left to grow for 48 hours at 27 C. Medium was removed from the flask and the cells were washed once with PBS and then lysed in 5 ml lysis buffer (25 mM Tris, 5 mM EDTA, pH 7.5). Cells were scraped out of the flask, placed on ice, sonicated for 10 seconds and centrifuged in a […] centrifuge for 10 minutes at 700 rpm. Supernatant was removed and spun at 30,000 rpm for 60 minutes. Supernatant from this second centrifugation was then removed, and the pellet was resuspended in 0.5 ml lysis buffer, votexed and allowed to settle out.
# For the assay, the resulting supernatant containing PLD1 enzyme (1-10 ml) was combined with G-protein(s), 20 ml assay buffer (30 mM Na-Hepes, pH 7.5, 3 mM EGTA, 80 mM KCl, 1 mM DTT, 3.0 mM MgCl2 and 2.0 mM CaCl2) and 10 mM Hepes to make a total volume of 50 ml. 50 ml of the labeled lipid mixture was added, vortexed thoroughly, and incubated at 37 C. for 30 minutes. The reaction was stopped by adding 200 ml of 10% TCA and 100 ml of 10 mg/ml BSA and centrifugation for 5 minutes at 10,000 rpm. […] of the supernatant was removed and counted in 2 ml of scintillation fluid using a LKB scintillation counter for 60 seconds. This was the basic assay used for the following experiments; any modifications were as described below.
# To investigate the dependence of enzyme activity on calcium and magnesium, the concentrations of calcium and magnesium ions of the assay medium were varied. For some assays the lipid component of the vesicles was altered. Ptdins (4,5)P2 was purified from a lipid extract of bovine brain as described in Hammond, supra. Synthetic Ptdins (3,4,5)P3 was obtained from Glenn Prestwich, Dept. of Chemistry, SUNY Stony Brook. [^32P]-labeled phospholipids were isolated from extracts of U937 cells labeled overnight with [^32P] PO4 2- as described in Hammond, supra.
# Vesicles containing 7% acidic lipid in a background of PE/PS were employed in the foregoing assay. The lipids tested were PI(4,5)P2, PI(3,4,5)P3, PI4P and PI.
# ARF-stimulated PLD1activity was determined as the free concentrations of these ions were varied in the assay medium. PLD1 activity was insensitive to changes in Ca^2+ concentration over a side range (<10^−8 M to 10^−2 M). By contrast, ARF-stimulated PLD1 activity was dependent on Mg^2+ with half-maximal activity observed at approximately 10^−4 M.
# PLD1 was incubated with increasing concentrations of purified GTP S-activated ARF1(ADP-ribosylation factor 1), RhoA, Rac1 and cdc42. […] RhoA and Rac1 stimulated the enzyme approximately 10- and 13-fold respectively and cdc42 produced an approximately 5-fold activation. Effects of ARF and Rac1 were clearly saturable and, although the concentrations of purified RhoA and cdc42 obtained limited the final concentrations achieved in the assay, at the highest concentrations used, effects of these activators also appeared to be approaching saturation. Activation of PLD1 by these G-proteins was strictly dependent on GTP S. […]
# HL-60 cells = assay: RT-PCR quantification of hPLD2 during dbcAMP-induced HL-60 cell differentiation; assay type: cell-based, human; details: 0.5 mM dbcAMP
# Method: From the data of Example 7, it was known that a human analog of mPLD2 existed. mPLD2 primers were made from the expressed sequence tags existing in GenBank. To analyze changes in the levels of hPLD2 activity during HL-60 cell differentiation induced by dcbAMP, HL-60 cells maintained in RPMI-1640 medium supplemented with 10% fetal bovine serum, 100 units.ml penicillin and 100 µg/ml streptomycin in a humidified atmosphere containing 5% CO2, at 37 C. were grown in RPMI-1640 medium without fetal bovine serum for 24 hours. Differentiation was initiated by the addition of 0.5 mM dbcAMP. Levels of hPLD2 were quantified later by RT-PCR. Total RNA was isolated from the HL-60 cells at the exponential growth stage by the acid guanidine thiocyanate method following the protocol of Chomczynski, Anal. Biochem. 162:156-62(1992). Two g of RNA was reverse transcribed by using random hexamer mixed primers. The number of amplification cycles were determined to individual primer sets in order to maintain exponential rate of product amplification. Amplified DNA fragments were subjected to electrophoresis on 1.5% agarose gel and visualized by ethidium bromide staining. The intensity of bands was quantified by a densitometer (Atto Densitograph, Tokyo, Japan). Primer E (Forward):
# 5′[…] 3′. Primer F (reverse):
# 5′[…] 3′. Amplification conditions used were 94 C. for 30 seconds, 60 C. for 1 minute, and 72 C. for 1 minute; 25-27 cycles.
compound,measurement,setting,value
[Ca+2] [Ca^2+],sensitivity of PLD1 activity to ion concentration,"PLD1; ARF-stimulated, <10^−8 M to 10^−2 M",insensitive
[Mg+2] [Mg^2+],EC50,"PLD1; ARF-stimulated PLD1, free ion concentration, read-out: concentration for half-maximal ARF-stimulated PLD1 activity",~100 µM
"CCCCCCCCCCCCCC(=O)O[C@@H]1[C@@H](C)[C@@]2(O)[C@@H](C=C(CO)C[C@]3(O)C(=O)C(C)=C[C@@H]23)[C@@H]2C(C)(C)[C@]12OC(C)=O [PMA, phorbolmyristate acetate]",increase in potency with which PKC- stimulated PLD1,PLD1; 100 mM PMA in assay medium,approximately 10 fold
same,increase in maximal effect of PKC- on PLD1,PLD1; PMA in assay medium,approximately 1.5 fold
"O=P(O)(O)O[C@@H]1[C@H](O)[C@H](O)[C@@H](OP(=O)(O)O)[C@H](OP(=O)(O)O)[C@H]1O [inositol 1,4,5 trisphosphate]","activation of PLD1 or block of activation by PI(4,5)P2 or PI(3,4,5)P3","PLD1; soluble, concentrations up to […]",neither activated PLD1 nor blocked activation
"ARF1: Human ARF1, bacterially-expressed and purified G-protein, GTP S-activated","stimulation of PLD1 (maximal, concentration series)","PLD1; GTP S-activated G-protein, increasing concentrations",approximately 50 fold
same,activation of PLD1 by activator alone,"PLD1; maximally effective concentration: ARF1 4.7 M, RhoA 3.8 M, Rac1 5.3 M, cdc42 5.5 M, PKC- 0.043 M",49 fold
same,activation of PLD1 over basal combined with PKC-,PLD1; plus maximally effective PKC-,145 fold
"PI(3,4,5)P3",lipid content giving maximal activation of PLD1,PLD1,approximately 7%
same,stimulation of PLD1 activity by lipid,PLD1,stimulated
"PI(4,5)P2",lipid content giving maximal activation of PLD1,PLD1,approximately 7%
same,stimulation of PLD1 activity by lipid,PLD1,stimulated
hPLD2: human analog of mPLD2,increase in level (printed as activity) on day 1,"HL-60 cells; day 1, RT-PCR",approximately 8 fold
same,increase in level (printed as activity) on day 2,"HL-60 cells; day 2, RT-PCR",approximately 12 fold
same,increase in level (printed as activity) on day 3,"HL-60 cells; day 3, RT-PCR",approximately 20 fold
phosphotidylinositol 4-phosphate [PI4P],stimulation of PLD1 activity by lipid,PLD1,"Only PI(4,5)P2 and PI(3,4,5)P3 stimulated"
phosphotidylinositol [PI],stimulation of PLD1 activity by lipid,PLD1,"Only PI(4,5)P2 and PI(3,4,5)P3 stimulated"
